Experiments:
[1] = tested on: human Tau-BiFC (hTau-VN173, hTau-VC155); assay: Tau immunoblot of brain lysate, soluble fraction, hTau; type: in vivo, mouse; details: LMTM 15 mg/kg oral vs. vehicle; decrease (in parentheses)
Method: (§1) • (1) After completing administration, the mice of TauP301L-BiFC mouse model were anesthetized, followed by preparing heart laparotomy. • (2) Saline was introduced to the heart of each mouse in the TauP301L-BiFC mouse model, followed by removing vivo blood using a perfusion pump machine. • (3) After removing the blood, the brain was extracted and weighed. • (4) 1 mL RIPA buffer (w/protease/phosphatase inhibitor cocktail) was added to the extracted brain, followed by homogenization. • (5) After moving the homogenized brain lysate to an ep-tube, it was subjected to incubation in 4°C orbital shaker for 2 hours. • (6) After centrifugation at 4°C with a speed of 13,000 rpm for 20 minutes, the supernatant (soluble fraction) was collected in a new ep-tube and stored at -80°C • (7) In order to prepare an immunoblot sample, the concentration of a soluble fraction sample was quantified by Bradford protein quantification method. • (8) To each sample, RIPA buffer and 4X SDS Laemmli sample buffer (w/ 2.5% β-mercaptoethanol for reducing condition) were added to reach a final concentration of 2 mg/mL. • (9) The sample was boiled at 97°C for 5 minutes. […]

[2] = reported in Kim et al., Exp. Mol. Med. 55, 612-627 (2023); read-out: GI50 (cytotoxicity side effects); cited from earlier work
[3] = tested on: TauP301L-BiFC mice; assay: Novel object recognition test (cognitive ability) in 4R TauP301L-BiFC mouse model; type: in vivo; details: LMTM 15 mg/kg; mice administered 62 times; FIG. 3
Method: • (1) On day 1, adaptation training to a new open space was conducted. After an adaptation time for two similar objects added to the corresponding open space on day 2, an experiment to evaluate a cognitive ability to the newly replaced object on day 3 was conducted. • (2) 1 hour before the experiment, a time for adaptation of experimental mice in a space wherein the behavior experiment is conducted, should be ensured. • (3) On day 1, after exposing the experimental mouse to an open space in a size of 40 x 40 cm, the mouse was subjected to behavior assessment for 10 minutes. • (4) On day 2, two similar objects were placed in the same open space, followed by enabling the mouse to learn the objects for 10 minutes. • (5) On day 3, one among the two objects learned in the same open space was replaced with a new object. At this time, a cognitive ability to the replaced object was evaluated.
Results of evaluating the cognitive ability improvement efficacy through a novel object recognition test in the 4R TauP301L-BiFC mouse model were shown in FIG. 3. The experiment was conducted using the TauP301L-BiFC mouse model including 7- to 12-month-old mice administered with the drug for 5 months. […] The obtained results were analyzed through bidirectional ANOVA using Sidak's multiple comparisons test (*p<0.05; ***p<0.0001).

[4] = tested on: mouse Tau (mTau); assay: Tau immunoblot of brain lysate, soluble fraction, mTau; type: in vivo; details: LMTM 15 mg/kg oral vs. vehicle, decrease (in parentheses)
Method: as §1

CN(C)c1ccc2c(c1)Sc1cc(N(C)C)ccc1N2.CS(=O)(=O)O.CS(=O)(=O)O [LMTM]
Soluble fraction, Phosphorylated tau, hTau (pS199) [1]: (20%) | Soluble fraction, Phosphorylated tau, hTau (pS396) [1]: (23%) | Soluble fraction, Total tau, hTau [1]: (20%) | GI50 [2]: 6.4 ± 0.3 µM | cognitive ability for the new object (novel object recognition test), in words [3]: significantly improved | Soluble fraction, Phosphorylated tau, mTau (pS199) ([4]; ***p<0.001): (34%)** * | Soluble fraction, Total tau, mTau ([4]; **p<0.01): (24%)** | Soluble fraction, Phosphorylated tau, mTau (pS396) ([4]; *p<0.05): (27%)*
